Results from ChEMBL document CHEMBL3885881, “DrugMatrix”.

Organism: Rattus norvegicus
Assay: DrugMatrix - Regimen: Daily Repeat
Type: toxicity, organism-based, Sprague-Dawley
Set-up: regimen Daily Repeat, gender Male, age 6-8 weeks
Settings: in vivo, po, route oral GAVAGE, vehicle .5 % CMC; for ABSOLUTE BASOPHIL / ABSOLUTE EOSINOPHIL / ABSOLUTE LYMPHOCYTE / ABSOLUTE MONOCYTE / ABSOLUTE SEGMENTED NEUTROPHIL / BASOPHIL / EOSINOPHIL / ERYTHROCYTE COUNT / HEMATOCRIT / HEMOGLOBIN / LEUKOCYTE COUNT / LYMPHOCYTE / MEAN CORPUSCULAR HEMOGLOBIN / MEAN CORPUSCULAR HEMOGLOBIN CONCENTRATION / MEAN CORPUSCULAR VOLUME / MONOCYTE / NEUTROPHIL / NUCLEATED RED BLOOD CELLS / PLATELET COUNT: tissue Blood; for ALANINE AMINOTRANSFERASE / ALBUMIN / ALKALINE PHOSPHATASE / ASPARTATE AMINOTRANSFERASE / BLOOD UREA NITROGEN / CARBON DIOXIDE / CHLORIDE / CHOLESTEROL / CREATINE PHOSPHOKINASE / CREATININE / GLUCOSE / LACTATE DEHYDROGENASE / LIPASE / PHOSPHORUS / POTASSIUM / SODIUM / TOTAL BILIRUBIN / TOTAL PROTEIN / URIC ACID: tissue Plasma
[1] = 5 mg/kg, 72 h, dose level Low, time 3 day
[2] = 5 mg/kg, 120 h, dose level Low, time 5 day
[3] = 35 mg/kg, 72 h, dose level High, time 3 day
[4] = 35 mg/kg, 120 h, dose level High, time 5 day

COc1cc(CNC(=O)CCCC/C=C/C(C)C)ccc1O [CAPSAICIN]
ABSOLUTE BASOPHIL [1]: 0 CELLS/uL
ABSOLUTE EOSINOPHIL [1]: 231.67 CELLS/uL
ABSOLUTE LYMPHOCYTE [1]: 12823.67 CELLS/uL
ABSOLUTE MONOCYTE [1]: 176.33 CELLS/uL
ABSOLUTE SEGMENTED NEUTROPHIL [1]: 735 CELLS/uL
BASOPHIL [1]: 0%
EOSINOPHIL [1]: 1.33%
ERYTHROCYTE COUNT [1]: 5.55 x10E6/uL
HEMATOCRIT [1]: 34.43%
HEMOGLOBIN [1]: 12.97 G/DL
LEUKOCYTE COUNT [1]: 13.97 x10E3/uL
LYMPHOCYTE [1]: 92%
MEAN CORPUSCULAR HEMOGLOBIN [1]: 23.37 pg
MEAN CORPUSCULAR HEMOGLOBIN CONCENTRATION [1]: 37.63 G/DL
MEAN CORPUSCULAR VOLUME [1]: 62.03 fL
MONOCYTE [1]: 1.33%
NEUTROPHIL [1]: 5.33%
NUCLEATED RED BLOOD CELLS [1]: 0 /100WBC
PLATELET COUNT [1]: 1334 x10E3/uL
ALANINE AMINOTRANSFERASE [1]: 40.33 u/L
ALBUMIN [1]: 4.27 G/DL
ALKALINE PHOSPHATASE [1]: 433 u/L
ASPARTATE AMINOTRANSFERASE [1]: 75.33 u/L
BLOOD UREA NITROGEN [1]: 15 mg/dL
CARBON DIOXIDE [1]: 25.33 mmol/L
CHLORIDE [1]: 104.67 MEQ/L
CHOLESTEROL [1]: 57 mg/dL
CREATINE PHOSPHOKINASE [1]: 554.67 u/L
CREATININE [1]: 0.17 mg/dL
GLUCOSE [1]: 177.67 mg/dL
LACTATE DEHYDROGENASE [1]: 121 u/L
LIPASE [1]: 8 u/L
PHOSPHORUS [1]: 12.47 mg/dL
POTASSIUM [1]: 6.02 MEQ/L
SODIUM [1]: 145.37 MEQ/L
TOTAL BILIRUBIN [1]: 0.23 mg/dL
TOTAL PROTEIN [1]: 5.9 G/DL
URIC ACID [1]: 1.5 mg/dL
ABSOLUTE BASOPHIL [2]: 0 CELLS/uL
ABSOLUTE EOSINOPHIL [2]: 118.67 CELLS/uL
ABSOLUTE LYMPHOCYTE [2]: 14371.67 CELLS/uL
ABSOLUTE MONOCYTE [2]: 374.33 CELLS/uL
ABSOLUTE SEGMENTED NEUTROPHIL [2]: 1135.33 CELLS/uL
BASOPHIL [2]: 0%
EOSINOPHIL [2]: 0.67%
ERYTHROCYTE COUNT [2]: 5.31 x10E6/uL
HEMATOCRIT [2]: 33.03%
HEMOGLOBIN [2]: 12.53 G/DL
LEUKOCYTE COUNT [2]: 16 x10E3/uL
LYMPHOCYTE [2]: 89.67%
MEAN CORPUSCULAR HEMOGLOBIN [2]: 23.6 pg
MEAN CORPUSCULAR HEMOGLOBIN CONCENTRATION [2]: 37.93 G/DL
MEAN CORPUSCULAR VOLUME [2]: 62.17 fL
MONOCYTE [2]: 2.33%
NEUTROPHIL [2]: 7.33%
NUCLEATED RED BLOOD CELLS [2]: 0 /100WBC
PLATELET COUNT [2]: 1256.67 x10E3/uL
ALANINE AMINOTRANSFERASE [2]: 50 u/L
ALBUMIN [2]: 4.1 G/DL
ALKALINE PHOSPHATASE [2]: 314 u/L
ASPARTATE AMINOTRANSFERASE [2]: 93.67 u/L
BLOOD UREA NITROGEN [2]: 18.33 mg/dL
CARBON DIOXIDE [2]: 24.33 mmol/L
CHLORIDE [2]: 107.67 MEQ/L
CHOLESTEROL [2]: 68 mg/dL
CREATINE PHOSPHOKINASE [2]: 629.33 u/L
CREATININE [2]: 0.21 mg/dL
GLUCOSE [2]: 153 mg/dL
LACTATE DEHYDROGENASE [2]: 471.33 u/L
LIPASE [2]: 8.33 u/L
PHOSPHORUS [2]: 12.63 mg/dL
POTASSIUM [2]: 5.84 MEQ/L
SODIUM [2]: 145.1 MEQ/L
TOTAL BILIRUBIN [2]: 0.2 mg/dL
TOTAL PROTEIN [2]: 6.2 G/DL
URIC ACID [2]: 1.73 mg/dL
ABSOLUTE BASOPHIL [3]: 0 CELLS/uL
ABSOLUTE EOSINOPHIL [3]: 0 CELLS/uL
ABSOLUTE LYMPHOCYTE [3]: 7477.33 CELLS/uL
ABSOLUTE MONOCYTE [3]: 60 CELLS/uL
ABSOLUTE SEGMENTED NEUTROPHIL [3]: 496 CELLS/uL
BASOPHIL [3]: 0%
EOSINOPHIL [3]: 0%
ERYTHROCYTE COUNT [3]: 5.28 x10E6/uL
HEMATOCRIT [3]: 33.53%
HEMOGLOBIN [3]: 12.7 G/DL
LEUKOCYTE COUNT [3]: 8.03 x10E3/uL
LYMPHOCYTE [3]: 92.67%
MEAN CORPUSCULAR HEMOGLOBIN [3]: 24.13 pg
MEAN CORPUSCULAR HEMOGLOBIN CONCENTRATION [3]: 37.9 G/DL
MEAN CORPUSCULAR VOLUME [3]: 63.63 fL
MONOCYTE [3]: 1%
NEUTROPHIL [3]: 6.33%
NUCLEATED RED BLOOD CELLS [3]: 0.33 /100WBC
PLATELET COUNT [3]: 1342.33 x10E3/uL
ALANINE AMINOTRANSFERASE [3]: 44 u/L
ALBUMIN [3]: 4.33 G/DL
ALKALINE PHOSPHATASE [3]: 316 u/L
ASPARTATE AMINOTRANSFERASE [3]: 71.33 u/L
BLOOD UREA NITROGEN [3]: 17.33 mg/dL
CARBON DIOXIDE [3]: 27.67 mmol/L
CHLORIDE [3]: 103.5 MEQ/L
CHOLESTEROL [3]: 75.67 mg/dL
CREATINE PHOSPHOKINASE [3]: 217 u/L
CREATININE [3]: 0.22 mg/dL
GLUCOSE [3]: 141.67 mg/dL
LACTATE DEHYDROGENASE [3]: 119.33 u/L
LIPASE [3]: 8.5 u/L
PHOSPHORUS [3]: 11.67 mg/dL
POTASSIUM [3]: 5.75 MEQ/L
SODIUM [3]: 147.2 MEQ/L
TOTAL BILIRUBIN [3]: 0.27 mg/dL
TOTAL PROTEIN [3]: 6.13 G/DL
URIC ACID [3]: 1.1 mg/dL
ABSOLUTE BASOPHIL [4]: 0 CELLS/uL
ABSOLUTE EOSINOPHIL [4]: 117.33 CELLS/uL
ABSOLUTE LYMPHOCYTE [4]: 12147.67 CELLS/uL
ABSOLUTE MONOCYTE [4]: 58.67 CELLS/uL
ABSOLUTE SEGMENTED NEUTROPHIL [4]: 1243 CELLS/uL
BASOPHIL [4]: 0%
EOSINOPHIL [4]: 1%
ERYTHROCYTE COUNT [4]: 5.71 x10E6/uL
HEMATOCRIT [4]: 34.97%
HEMOGLOBIN [4]: 13.33 G/DL
LEUKOCYTE COUNT [4]: 13.57 x10E3/uL
LYMPHOCYTE [4]: 88.67%
MEAN CORPUSCULAR HEMOGLOBIN [4]: 23.4 pg
MEAN CORPUSCULAR HEMOGLOBIN CONCENTRATION [4]: 38.13 G/DL
MEAN CORPUSCULAR VOLUME [4]: 61.27 fL
MONOCYTE [4]: 0.33%
NEUTROPHIL [4]: 10%
NUCLEATED RED BLOOD CELLS [4]: 0 /100WBC
PLATELET COUNT [4]: 1274 x10E3/uL
ALANINE AMINOTRANSFERASE [4]: 52.67 u/L
ALBUMIN [4]: 4.07 G/DL
ALKALINE PHOSPHATASE [4]: 391 u/L
ASPARTATE AMINOTRANSFERASE [4]: 83.67 u/L
BLOOD UREA NITROGEN [4]: 18 mg/dL
CARBON DIOXIDE [4]: 25.67 mmol/L
CHLORIDE [4]: 105.33 MEQ/L
CHOLESTEROL [4]: 62 mg/dL
CREATINE PHOSPHOKINASE [4]: 166.33 u/L
CREATININE [4]: 0.21 mg/dL
GLUCOSE [4]: 177 mg/dL
LACTATE DEHYDROGENASE [4]: 115.67 u/L
LIPASE [4]: 8.67 u/L
PHOSPHORUS [4]: 13.17 mg/dL
POTASSIUM [4]: 6.01 MEQ/L
SODIUM [4]: 146.17 MEQ/L
TOTAL BILIRUBIN [4]: 0.17 mg/dL
TOTAL PROTEIN [4]: 6.03 G/DL
URIC ACID [4]: 1.8 mg/dL
